Measured values from patent US20120114576A1, “Method for preventing or treating yellowish discoloration of skin” (Shiseido Company, Ltd., priority 2010, published 2012).

Target: T1, acellular dermis model (contracted collagen gel) (Bos taurus, UniProt P02453+P02465)
T1 construct: purchased Koken, Tokyo, Japan; host or cells: The gel was contracted by dermal fibroblasts, which were then destroyed by washing with de-ionized water
Experiment: Experimental induction of yellowish change in acellular dermis model by carbonyl modification or glycation (colorimetry b*)
Set-up: species or system bovine
Settings: 37° C.; for yellowish change of the dermal model (b*), long term treatment: 50 μM, 50 days, FIGS. 6 C and D; for yellowish change of the gel (b*): 9 days, FIGS. 6 A and B
Experimental: Skin color was measured by using a chromameter Konica-Minolta CM 2600d. The measurement of excised skin samples was performed by placing the skin samples on a white board. Data were expressed in the CIE L*a*b* color space, and the parameter b* was employed as a value for yellowish color.
A dermal equivalent model consisted of contracted collagen gel containing a trace amount of other extracellular matrix was prepared according to the method described by Tsunenaga et al. with a slight modification. Briefly, dermal fibroblasts (1×10^6 cells) were cultivated in 10 ml of Dulbecco's modified Eagle's medium supplemented with 10% fetal bovine serum and 0.3% acid-solubilized bovine type I collagen (Koken, Tokyo, Japan) in a petri dish of 60 mm diameter at 37° C. and 5% CO2. After 7 days of culture, a contracted collagen gel approximately 15 mm diameter was produced. Thereafter, this dermal equivalent model was extensively washed with serial changes of an excess amount of de-ionized water to destroy fibroblasts and to remove soluble materials.
The prepared acellular dermis model was incubated in 2.5 ml of an aqueous solution of chemical reagents, containing acrolein (50 μM to 10 mM) and 4-hydroxynonenal (4-HNE, 50 μM to 10 mM) for the carbonyl modification, and ribose (200 mM) and glyoxal (10 mM) for glycation. They were INCUBATED at 37° C. and the solutions were changed twice a week. Changes taking place in their color were monitored by colorimetry.
To confirm a link suspected between the carbonyl modification and the yellowish change of the dermis, the inventors examined the effect of experimentally produced carbonyl modification on the color of an acellular dermis model, and selected a contracted collagen gel as a dermis model, and treated it with acrolein or 4-HNE to induce carbonyl modification, or with d-ribose or glyoxal to induce glycation as a reference. […] Furthermore, a long term treatment of the dermis model with 50 μM acrolein or 50 μM 4-HNE, which were almost equivalent to those of the physiological concentrations in human tissue, also led to the yellowish colorization (FIGS. 6 C and D).

T1 sequence (P02453 162-1217 limits assumed): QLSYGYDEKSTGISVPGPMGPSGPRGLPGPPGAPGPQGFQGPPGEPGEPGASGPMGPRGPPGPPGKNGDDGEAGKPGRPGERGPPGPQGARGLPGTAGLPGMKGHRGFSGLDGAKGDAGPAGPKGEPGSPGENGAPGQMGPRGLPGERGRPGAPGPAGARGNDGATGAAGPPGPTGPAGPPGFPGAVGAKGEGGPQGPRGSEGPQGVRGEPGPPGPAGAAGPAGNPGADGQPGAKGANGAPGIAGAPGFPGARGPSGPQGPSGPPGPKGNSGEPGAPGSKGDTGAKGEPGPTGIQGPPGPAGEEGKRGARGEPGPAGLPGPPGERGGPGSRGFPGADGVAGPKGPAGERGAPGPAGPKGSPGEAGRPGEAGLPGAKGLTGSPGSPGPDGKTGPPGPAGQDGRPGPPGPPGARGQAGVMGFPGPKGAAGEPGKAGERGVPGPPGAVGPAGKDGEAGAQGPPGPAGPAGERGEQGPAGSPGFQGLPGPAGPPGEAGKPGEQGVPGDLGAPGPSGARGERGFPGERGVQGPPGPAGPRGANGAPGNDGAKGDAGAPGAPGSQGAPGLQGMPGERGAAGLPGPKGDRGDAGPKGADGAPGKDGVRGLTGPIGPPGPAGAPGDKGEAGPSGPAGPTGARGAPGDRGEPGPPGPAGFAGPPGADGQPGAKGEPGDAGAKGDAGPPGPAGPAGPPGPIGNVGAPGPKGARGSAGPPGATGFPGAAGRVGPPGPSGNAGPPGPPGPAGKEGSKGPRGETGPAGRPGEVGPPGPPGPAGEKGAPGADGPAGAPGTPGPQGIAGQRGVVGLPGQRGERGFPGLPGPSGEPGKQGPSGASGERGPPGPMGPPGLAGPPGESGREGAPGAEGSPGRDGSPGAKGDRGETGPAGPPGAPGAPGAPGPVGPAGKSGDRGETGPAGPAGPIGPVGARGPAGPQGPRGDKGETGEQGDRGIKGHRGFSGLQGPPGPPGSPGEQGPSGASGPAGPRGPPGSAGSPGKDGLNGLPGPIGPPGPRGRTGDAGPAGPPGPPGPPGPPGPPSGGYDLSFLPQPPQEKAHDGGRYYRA
T1 sequence (P02465 80-1117 limits assumed): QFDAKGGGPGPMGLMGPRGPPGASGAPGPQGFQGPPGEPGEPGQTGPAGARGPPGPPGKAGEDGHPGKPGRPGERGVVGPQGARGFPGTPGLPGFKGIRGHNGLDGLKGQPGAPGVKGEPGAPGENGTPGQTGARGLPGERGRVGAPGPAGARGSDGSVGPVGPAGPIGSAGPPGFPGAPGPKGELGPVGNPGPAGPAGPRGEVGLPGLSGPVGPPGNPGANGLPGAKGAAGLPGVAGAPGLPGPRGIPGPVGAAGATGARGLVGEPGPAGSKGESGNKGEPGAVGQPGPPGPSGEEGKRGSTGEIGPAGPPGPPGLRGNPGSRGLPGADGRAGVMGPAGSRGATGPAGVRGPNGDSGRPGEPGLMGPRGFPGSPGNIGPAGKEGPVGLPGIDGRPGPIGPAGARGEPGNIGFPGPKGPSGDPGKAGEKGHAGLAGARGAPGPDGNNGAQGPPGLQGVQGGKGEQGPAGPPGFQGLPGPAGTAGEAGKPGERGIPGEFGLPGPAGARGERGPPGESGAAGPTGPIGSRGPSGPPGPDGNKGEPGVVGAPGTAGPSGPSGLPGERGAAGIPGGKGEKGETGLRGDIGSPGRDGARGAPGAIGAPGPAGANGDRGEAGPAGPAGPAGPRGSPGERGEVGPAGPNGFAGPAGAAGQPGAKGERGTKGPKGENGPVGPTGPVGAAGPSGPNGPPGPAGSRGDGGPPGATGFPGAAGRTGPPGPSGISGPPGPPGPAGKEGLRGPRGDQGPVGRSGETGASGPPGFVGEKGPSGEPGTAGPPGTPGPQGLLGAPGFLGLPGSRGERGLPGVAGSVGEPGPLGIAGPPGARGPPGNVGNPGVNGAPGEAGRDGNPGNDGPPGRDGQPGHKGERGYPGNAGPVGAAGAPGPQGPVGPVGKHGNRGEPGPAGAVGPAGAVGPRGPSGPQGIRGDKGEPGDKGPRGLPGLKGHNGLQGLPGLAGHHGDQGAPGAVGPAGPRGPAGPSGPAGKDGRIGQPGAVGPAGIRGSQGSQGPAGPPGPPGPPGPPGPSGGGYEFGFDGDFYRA

SMILES | yellowish change of the dermal model (b*), long term treatment | yellowish change of the gel (b*) (10 mM) | yellowish change of the gel (b*) (200 mM)
CCCCCC(O)/C=C/C=O (stereo not drawn) [4-HNE, 4-hydroxynonenal] | reached the maximum in the first 10 days | significant yellowish change | 
O=CC=O [glyoxal] |  | only a slight yellowish change | 
O=C[C@H](O)[C@H](O)[C@H](O)CO [d-ribose] |  |  | only a slight yellowish change
C=CC=O [acrolein] | almost linear increase depending on the treatment period | significant yellowish change | 
